Where two headings read alike, the source gives them in different places.
Columns and labels:
[1] = tested on: wild-type HIV-1 IIIB strain; assay: Antiviral activity in MT4 LTR-EGFP cellular assay; format: cell-based; conditions: read-out: Antiviral Activity IIIB pEC50 (converted)
Protocol: (§1) Assay 1 &2: Antiviral Activity/Toxicity
The compounds of the present invention were tested for antiviral activity in a cellular assay, which was performed according to the following procedure.
The human T-cell line MT4 is engineered with Green Fluorescent Protein (GFP) and an HIV-specific promoter, HIV-1 long terminal repeat (LTR). This cell line is designated MT4 LTR-EGFP, and can be used for the in vitro evaluation of anti-HIV activity of investigational compounds. In HIV-1 infected cells, the Tat protein is produced which upregulates the LTR promotor and finally leads to stimulation of the GFP reporter production, allowing measuring ongoing HIV-infection fluorometrically.
(§2) The ratio of CC50 to EC50 is defined as the selectivity index (SI) and is an indication of the selectivity of the anti-HIV activity of the inhibitor. The ultimate monitoring of HIV-1 infection and cytotoxicity is done using a scanning microscope. Image analysis allows very sensitive detection of viral infection. Measurements are done before cell necrosis, which usually takes place about five days after infection, in particular measurements are performed three days after infection.
A pEC50 value corresponds to −log10(EC50). A pCC50 value corresponds to −log10(CC50).

CYP2D6 = biological target: T1, CYP2D6 (Homo sapiens, UniProt P10635); assay: CYP450 inhibition, fluorescent substrate assay, CYP2D6; format: biochemical; conditions: substrate AMMC 3 μM, read-out: 2D6-AMMC % inh.
T1 construct: host or cells: E. coli
Protocol: (§3) Assay 4: CYP450 Inhibition […] This fluorescent molecule was measured using a fluorescent plate reader (Victor2 (Wallac) or Fluoroskan (Labsystems)). Compounds inhibiting the enzymatic reaction will result in a decrease of fluorescent signal. CYP P450 enzymes were prepared in house or commercially bought and stored at −80° C. [table] The assay was performed in black 96 well Costar plates. Test compounds were added to a CYP P450 enzyme solution in the presence of an NADPH generating system. After 5 min of preincubation at 37° C., the freshly prepared, phosphate buffered (pH 7.4) substrate solution was added. Known CYP P450 inhibitors were used as positive controls, negative controls were run without CYP P450 enzyme. For final reaction mixture concentrations, see Table 6. […] Then, the reaction was stopped by the addition of 200 μl acetonitrile, and the fluorescent signal was detected. [table] […] Inhibition of TMC114 Metabolisation

[2] = Cytotoxicity in mock-infected MT4 CMV-EGFP cells; format: cell-based; conditions: human, pCC50 = -log10(CC50), read-out: Toxicity MT4 pCC50 (converted)
Source text: as §1
Analogously, MT4 cells are engineered with GFP and the constitutional cytomegalovirus (CMV) promotor. This cell line is designated MT4 CMV-EGFP, and can be used for the in vitro evaluation of cytotoxicity of investigational compounds. In this cell line, GFP levels are comparably to those of infected MT4 LTR-EGFP cells. Cytotoxic investigational compounds reduce GFP levels of mock-infected MT4 CMV-EGFP cells.
as §2, with “Effective concentration values such as 50% effective concentration (EC50) can be determined and are usually expressed in μM. An EC50 value is defined as the concentration of test compound that reduces the fluorescence of HIV-infected cells by 50%. The 50% cytotoxic concentration (CC50 in μM) is defined as the concentration of test compound that reduces fluorescence of the mock-infected cells by 50%. The ratio” for “The ratio”
Table 2 lists pEC50 values against the wild-type HIV-1 IIIB strain as well as pCC50 values for a selected number of compounds of the invention. A pEC50 value corresponds to −log10(EC50). A pCC50 value corresponds to −log10(CC50).

in vitro = in vitro ADME, human; conditions: pH 7.4
Source text: Assay 3: Metabolic Stability of Test Compounds (HLM15′)
Sub-cellular tissue preparations are made according to Gorrod et al. (Xenobiotica, 5, pp. 453-462 (1975)) by centrifugal separation after mechanical homogenization of tissue. Human liver tissue is rinsed in ice-cold 0.1 M Tris-HCl (pH 7.4) buffer to wash excess blood. Tissue is then blotted dry, weighed and chopped coarsely using surgical scissors. The tissue pieces are homogenized in 3 volumes of ice-cold 0.1 M phosphate buffer (pH 7.4) using either a Potter-S (Braun, Italy) equipped with a Teflon pestle or a Sorvall Omni-Mix homogenizer, for 7×10 sec. In both cases, the vessel is kept in/on ice during the homogenization process. Tissue homogenates are centrifuged at 9000×g for 20 min at 4° C. using a Sorvall centrifuge or Beckman Ultracentrifuge. The resulting supernatant can be stored at −80° C. and is designated ‘S9’. The S9 fraction is centrifuged at 100,000×g for 60 min at 4° C. using a Beckman ultracentrifuge. The resulting supernatant is carefully aspirated, aliquoted and designated ‘cytosol’. The pellet is re-suspended in 0.1 M phosphate buffer (pH 7.4) in a final volume of 1 ml per 0.5 g original tissue weight and designated ‘microsomes’. All sub-cellular fractions are aliquoted, immediately frozen in liquid nitrogen and stored at −80° C. until use.
Heat-inactivated (10 min at 95° C.) ‘S9’ or microsomes were used for blank experiments. Reaction mixtures were incubated at 37° C. for 5 min, after which the reaction was started by the addition of 0.8 mM β-NADP. The reaction was incubated for 0 or 15 min. Next, the reaction was stopped by addition of 2 volumes of DMSO (or acetonitrile). Samples were centrifuged (10 min, 900×g) and analyzed by LC-MS.

CYP2C19 = biological target: T2, CYP2C19 (Homo sapiens, UniProt P33261); assay: CYP450 inhibition, fluorescent substrate assay, CYP2C19; format: biochemical; conditions: substrate CEC 25 μM, read-out: 2C19-CEC % inh.
T2 construct: host or cells: E. coli
Protocol: as §3

CYP2C9 = CYP2C9 (Homo sapiens, UniProt P11712); assay: CYP450 inhibition, fluorescent substrate assay, CYP2C9; format: biochemical
Protocol: as §3

CYP1A2 = biological target: T3, CYP1A2 (Homo sapiens, UniProt P05177); assay: CYP450 inhibition, fluorescent substrate assay, CYP1A2; format: biochemical; conditions: substrate CEC 5 μM, read-out: 1A2-CEC % inh.
T3 construct: host or cells: E. coli
T3 sequence (P05177 1-516): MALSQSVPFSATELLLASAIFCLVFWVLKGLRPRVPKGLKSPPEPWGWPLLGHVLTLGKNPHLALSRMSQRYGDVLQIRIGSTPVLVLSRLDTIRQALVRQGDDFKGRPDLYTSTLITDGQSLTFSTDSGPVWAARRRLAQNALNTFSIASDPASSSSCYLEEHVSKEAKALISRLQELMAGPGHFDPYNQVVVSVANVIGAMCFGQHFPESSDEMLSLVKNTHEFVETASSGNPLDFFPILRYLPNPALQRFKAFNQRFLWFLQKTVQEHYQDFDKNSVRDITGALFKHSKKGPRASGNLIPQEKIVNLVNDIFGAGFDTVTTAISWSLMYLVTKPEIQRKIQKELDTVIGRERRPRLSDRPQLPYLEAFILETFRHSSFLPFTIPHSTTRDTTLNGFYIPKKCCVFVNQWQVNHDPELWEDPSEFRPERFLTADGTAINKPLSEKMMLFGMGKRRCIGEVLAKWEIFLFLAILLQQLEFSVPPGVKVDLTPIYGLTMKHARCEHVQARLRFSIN
Protocol: as §3

CYP3A4 = biological target: T4, CYP3A4 (Homo sapiens, UniProt P08684); assay: CYP450 inhibition, fluorescent substrate assay, CYP3A4; format: biochemical; conditions: 10 μM test compound; for inhibition at 10 min, 10 μM: E. coli expressed CYP3A4, pH 7.4, probe DBF (1 μM), substrate DBF 1 μM, read-out: 3A4-DBF % inh.
T4 construct: host or cells: E. coli
Protocol: as §3

[3] = Human immunodeficiency virus 1, 72 h, wild-type HIV-1 IIIB, MT4 LTR-EGFP cells, three days after infection, pEC50 = -log10(EC50)
[4] = E. coli expressed CYP2D6, pH 7.4, probe AMMC (3 μM), 10 μM test compound
[5] = E. coli expressed CYP2C19, pH 7.4, probe CEC (25 μM), 10 μM test compound
[6] = E. coli expressed CYP1A2, pH 7.4, probe CEC (5 μM), 10 μM test compound
[7] = E. coli expressed CYP3A4, pH 7.4, probe BFC (150 μM), substrate BFC 150 μM, read-out: 3A4-BFC % inh.
[8] = E. coli expressed CYP3A4, pH 7.4, probe BQ (60 μM), substrate BQ 60 μM, read-out: 3A4-BQ % inh.

CYP2C9, sequence (P11712 whole entry): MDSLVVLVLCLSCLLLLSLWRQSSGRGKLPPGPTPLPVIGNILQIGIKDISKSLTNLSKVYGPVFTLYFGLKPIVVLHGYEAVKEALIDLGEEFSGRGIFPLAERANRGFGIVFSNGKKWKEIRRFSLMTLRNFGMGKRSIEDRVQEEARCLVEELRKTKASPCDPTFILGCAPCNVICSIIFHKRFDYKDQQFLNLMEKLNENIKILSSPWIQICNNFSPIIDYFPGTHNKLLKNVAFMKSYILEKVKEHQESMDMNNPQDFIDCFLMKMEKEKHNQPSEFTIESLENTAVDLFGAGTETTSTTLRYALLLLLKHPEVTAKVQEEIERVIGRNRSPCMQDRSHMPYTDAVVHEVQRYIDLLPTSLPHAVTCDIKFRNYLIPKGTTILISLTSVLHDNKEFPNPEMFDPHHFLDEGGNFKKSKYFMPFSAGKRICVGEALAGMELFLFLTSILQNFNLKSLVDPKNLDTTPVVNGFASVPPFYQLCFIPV
T2 sequence (P33261 whole entry): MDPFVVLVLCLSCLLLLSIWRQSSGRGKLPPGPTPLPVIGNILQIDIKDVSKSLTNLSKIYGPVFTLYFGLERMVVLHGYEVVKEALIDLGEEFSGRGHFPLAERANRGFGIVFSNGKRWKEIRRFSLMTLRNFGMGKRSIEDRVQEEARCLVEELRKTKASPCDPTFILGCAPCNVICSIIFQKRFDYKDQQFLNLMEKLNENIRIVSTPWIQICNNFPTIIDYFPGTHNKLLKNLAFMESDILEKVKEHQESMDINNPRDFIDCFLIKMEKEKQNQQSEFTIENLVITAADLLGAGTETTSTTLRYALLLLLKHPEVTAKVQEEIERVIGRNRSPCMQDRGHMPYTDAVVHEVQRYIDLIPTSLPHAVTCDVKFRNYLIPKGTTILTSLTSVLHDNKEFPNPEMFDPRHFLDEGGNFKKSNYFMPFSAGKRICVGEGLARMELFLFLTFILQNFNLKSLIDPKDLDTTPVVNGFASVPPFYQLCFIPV
T1 sequence (P10635 whole entry): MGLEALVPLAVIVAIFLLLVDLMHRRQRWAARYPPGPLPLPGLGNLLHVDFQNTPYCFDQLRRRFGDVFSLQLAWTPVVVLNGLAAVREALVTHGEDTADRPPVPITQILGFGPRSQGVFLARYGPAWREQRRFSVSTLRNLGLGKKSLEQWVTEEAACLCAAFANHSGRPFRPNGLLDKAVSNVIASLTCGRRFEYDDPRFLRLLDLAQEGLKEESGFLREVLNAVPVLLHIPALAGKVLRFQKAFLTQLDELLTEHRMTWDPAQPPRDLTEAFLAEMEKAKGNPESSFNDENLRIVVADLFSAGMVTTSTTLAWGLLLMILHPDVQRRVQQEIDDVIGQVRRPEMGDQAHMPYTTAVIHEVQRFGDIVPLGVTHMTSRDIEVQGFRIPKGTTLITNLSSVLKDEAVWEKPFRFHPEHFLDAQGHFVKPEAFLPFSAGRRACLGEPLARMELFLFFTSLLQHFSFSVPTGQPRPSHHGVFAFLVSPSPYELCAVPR
T4 sequence (P08684 whole entry): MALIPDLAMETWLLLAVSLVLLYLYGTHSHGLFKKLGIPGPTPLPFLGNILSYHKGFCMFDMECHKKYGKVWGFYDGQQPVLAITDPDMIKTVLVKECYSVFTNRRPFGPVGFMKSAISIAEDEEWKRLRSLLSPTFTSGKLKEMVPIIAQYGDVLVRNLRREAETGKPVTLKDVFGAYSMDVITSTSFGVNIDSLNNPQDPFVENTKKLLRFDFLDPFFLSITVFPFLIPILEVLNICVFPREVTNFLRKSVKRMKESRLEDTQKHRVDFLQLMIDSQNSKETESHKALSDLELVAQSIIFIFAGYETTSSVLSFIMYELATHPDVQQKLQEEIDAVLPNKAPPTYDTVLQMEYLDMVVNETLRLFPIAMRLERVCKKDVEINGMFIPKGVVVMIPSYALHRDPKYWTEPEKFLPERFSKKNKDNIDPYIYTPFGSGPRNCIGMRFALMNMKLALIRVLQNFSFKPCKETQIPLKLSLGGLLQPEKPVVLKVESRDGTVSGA

Row | SMILES | EC50 ([1]; Human immunodeficiency virus 1, IIIB, 72 h) | inhibition at 45 min, 10 μM (CYP2D6; pH 7.4, 10 μM test compound) | CC50 at 3 days [2] | recovery at 15 min, 5 μM (in vitro; human liver microsomes 1 mg/ml, 5 μM test compound, 15 min, 37° C., read-out: % recovery HLM15) | inhibition at 30 min, 10 μM (CYP2C19; pH 7.4, 10 μM test compound) | inhibition at 30 min, 10 μM (CYP2C9; pH 7.4, 10 μM test compound, substrate MFC 200 μM, 30 min, read-out: 2C9-MFC % inh.) | inhibition at 15 min, 10 μM (CYP1A2; pH 7.4, 10 μM test compound) | EC50 [1, 3] | inhibition at 45 min, 10 μM (CYP2D6; [4]) | recovery at 15 min, 5 μM (in vitro; human) | inhibition at 30 min, 10 μM (CYP2C19; [5]) | inhibition at 15 min, 10 μM (CYP1A2; [6]) | inhibition at 30 min, 10 μM (CYP2C9; pH 7.4) | inhibition at 30 min, 10 μM (CYP3A4; [7]) | inhibition at 30 min, 10 μM (CYP3A4; [8]) | inhibition at 10 min, 10 μM (CYP3A4)
1 | CC(C)CN(C[C@@H](O)[C@H](Cc1ccccc1)NC(=O)OCc1cncs1)C(=O)c1ccc2c(c1)OCO2 [Compound C1] | 47.9 µM | 73% | 57.5 µM | 56% | 94% | 97% | 36% |  |  |  |  |  |  |  |  | 
2 | CC(C)CN(C[C@@H](O)[C@H](Cc1ccccc1)NC(=O)OCc1cncs1)C(=O)c1ccc2occc2c1 [Compound C2] |  |  | 45.7 µM |  |  |  |  | 44.7 µM | 102% | 67% | 98% | 40% |  |  |  | 
3 | Cc1ccc(C(=O)N(CC(C)C)C[C@@H](O)[C@H](Cc2ccccc2)NC(=O)OCc2cncs2)cc1 [Compound C3] |  |  | 70.8 µM |  |  |  |  | 52.5 µM | 49% | 54% | 90% | 20% | 99% | 95% | 85% | 97%
4 | CC(C)CN(C[C@@H](O)[C@H](Cc1ccccc1)NC(=O)OCc1cncs1)C(=O)c1ccc(C(F)(F)F)cc1 [Compound C4] |  |  | 39.8 µM |  |  |  |  | 31.6 µM | 79% | 57% | 92% | 62% | 99% | 95% | 85% | 99%
5 | COc1ccc(C(=O)N(CC(C)C)C[C@@H](O)[C@H](Cc2ccccc2)NC(=O)OCc2cncs2)cc1 [Compound C5] |  |  | 87.1 µM |  |  |  |  | 85.1 µM | 41% | 83% | 86% | 14% | 94% | 92% | 82% | 92%
6 | CC(C)CN(C[C@@H](O)[C@H](Cc1ccccc1)NC(=O)OCc1cncs1)C(=O)c1ccc(F)cc1 [Compound C6] |  |  | > 100 µM |  |  |  |  | 79.4 µM | 65% | 81% | 94% | 41% | 96% | 82% | 83% | 92%
7 | COc1cccc(C(=O)N(CC(C)C)C[C@@H](O)[C@H](Cc2ccccc2)NC(=O)OCc2cncs2)c1 [Compound C7] |  |  | 70.8 µM |  |  |  |  | 83.2 µM | 45% | 56% | 89% | 13% | 97% | 92% | 80% | 94%
8 | CC(C)CN(C[C@@H](O)[C@H](Cc1ccccc1)NC(=O)OCc1cncs1)C(=O)c1cccc(F)c1 [Compound C19] |  |  | > 100 µM |  |  |  |  |  | 53% | 69% | 77% | 43% | 93% |  |  | 
9 | CC(C)(O)CN(C[C@@H](O)[C@H](Cc1ccccc1)NC(=O)OCc1cncs1)C(=O)c1ccncc1 [Compound C26] |  |  | > 100 µM |  |  |  |  |  | 30% | 92% | 35% | 0% | 82% | 95% | 77% | 84%

Reference: patent US8664391B2, “Amide compounds as boosters of antivirals” (Janssen R&D Ireland Ltd, priority 2008, dated 2014)
